Series [1] can be described thus: Measurement of relaxivity (r1, r2) in 3T MRI phantom. The settings on record: tertiary distilled water, 0.0625-1 mM, linear regression, in mM-1 s-1 (unit assumed). The class given is physicochemical. The method, then:
The relaxivity (r1, r2) of each of synthesized Gd-DO3A-Pca, and cyclic commercial contrast agents Gadovist® and Dotarem® as comparison groups material was measured. Specifically, a phantom was prepared by diluting the gadolinium complex in tertiary distilled water to five concentrations (0.0625, 0.125, 0.25, 0.5, 1 mM), and then T1 and T2 relaxation times were measured in 3T MRI. Thus, R (Relaxation rate=1/T) of each concentration was calculated and the relaxivity (r1, r2) result of the gadolinium complex was obtained through linear regression analysis (see FIG. 3) and shown in a following Table 1.

In the next series the target is amyloid beta polymer (Homo sapiens, UniProt P05067). The experiment in a line: Amyloid beta polymer targeting ability, MRI phantom experiment (9.4T). It is filed as binding. As to conditions: incubated with amyloid beta polymer 37° C. 24 hours, washed, 9.4T MR. How it is done: (1) 221.5 uL of HFIP was added to 1 mg of amyloid beta at a concentration of 1 mM, followed by shaking for 1 hour at room temperature using a shaker to remove preaggregation. (2) The amyloid beta from which the preaggregation was removed was dried, and 221.5 uL of DMSO was added thereto to achieve a 1 mM concentration. Using a mixer and sonicator, a suspension thereof was prepared, and 878.5 uL of PBS (1×, pH 7.4) was added thereto to achieve a 0.2 mM concentration. (3) After incubating the suspension at 37° C. for 4 days using a shaker, the polymerized amyloid beta polymer was dispensed by 200 μL. Then, 20 μL of a solution in which each of Gd-DO3A-Pca and the commercial contrast agent (Gadovist®) was dissolved in PBS at 2 mM concentration was added thereto. The incubation was carried out thereon at 37° C. for 24 hours using a shaker. (4) After 24 hours has elapsed, centrifugation was performed thereon to remove the supernatant therefrom. The amyloid beta polymer was washed using PBS. 200 μL of a solution of PBS:DMSO=9:1 was added to a pellet to prepare an MRI phantom sample. As a control, a phantom sample obtained by incubating only the amyloid beta polymer was used. […]

These results are taken from patent US20240399000A1, “GADOLINIUM-BASED COMPOUND AND MRI CONTRAST AGENT COMPRISING SAME” (KYUNGPOOK NATIONAL UNIVERSITY INDUSTRY-ACADEMIC COOPERATION …, priority 2021, published 2024).

Chain of amyloid beta polymer (P05067 672-713 limits assumed): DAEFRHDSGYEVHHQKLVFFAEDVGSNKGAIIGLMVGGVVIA

In the case of `CNC[C@H](O)[C@@H](O)[C@H](O)[C@H](O)CO.O=C([O-])CN1CCN(CC(=O)[O-])CCN(CC(=O)O)CCN(CC(=O)[O-])CC1.[Gd+3]` [Dotarem ®], in series [1], the “relaxivity r1” value is reported as 3.4 ± 0.1 and the “relaxivity r2” value worked out at 3.9 ± 0.2.

Turning to `O=C([O-])CN1CCN(CC(=O)[O-])CCN([C@H](CO)[C@H](O)CO)CCN(CC(=O)[O-])CC1.[Gd+3]` (racemic) [Gadovist ®], in series [1], the “relaxivity r1” value amounted to 3.9 ± 0.1 and the “relaxivity r2” value came out at 4.8 ± 0.1. Besides, the “contrast enhancement / signal intensity of phantom vs phantom of only amyloid beta polymer” value at amyloid beta polymer is on record as “little difference in contrast enhancement effect”.
